Experimental data taken from ChEMBL document CHEMBL3727346, “6-(pyridinyl)-4-pyrimidone derivates as tau protein kinase 1 inhibitors” (2011).

Target: Glycogen synthase kinase-3 beta splice variant X1 (Bos taurus, UniProt A0A059UE90)
Experiment: Inhibition of bovine cerebral TPK1 assessed as reduction in P-GS1 phosphorylation using [32gammaP]ATP incubated for 2 hrs by liquid scintillation counting method

Q: For `Cn1c(N2CCN[C@@H](c3ccc(N4CCCCC4)cc3)C2)nc(-c2ccncc2F)cc1=O`, which IC50 is on record?
A: 3.7 nM

Q: How did the IC50 turn out when `CC(=O)Nc1cccc([C@H]2CN(c3nc(-c4ccncc4F)cc(=O)n3C)CCO2)c1` was run?
A: 4.1 nM

Q: For `CC(=O)N1CCC(Oc2ccc([C@H]3CN(c4nc(-c5ccncc5F)cc(=O)n4C)CCO3)cc2)CC1`, which IC50 is on record?
A: 6.4 nM

Q: Which IC50 does the source give for `Cc1cc(C2CN(c3nc(-c4ccncc4F)cc(=O)n3C)CCO2)ccc1Br` (stereo not drawn) here?
A: 0.51 nM

Q: How did the IC50 turn out when `Cn1c(N2CCO[C@@H](c3c(F)cccc3Cl)C2)nc(-c2ccncc2F)cc1=O` was run?
A: 1.4 nM

Q: For `Cn1c(N2CCO[C@@H](c3cc4ccccc4o3)C2)nc(-c2ccncc2F)cc1=O`, which IC50 is on record?
A: 7.9 nM

Q: Which IC50 does the source give for `COc1ccc(-c2ccc([C@H]3CN(c4nc(-c5ccncc5F)cc(=O)n4C)CCN3)cc2)cc1` here?
A: 0.73 nM

Q: With `CN(C)CC(=O)Nc1ccc([C@H]2CN(c3nc(-c4ccncc4F)cc(=O)n3C)CCO2)cc1` as the compound, how does the IC50 read?
A: 0.27 nM
